Measurements from patent US12441689B2 (EpiVario, Inc., priority 2019, dated 2025).

Biological target: human ACSS2 protein (Homo sapiens (Human), UniProt Q9NR19)
Experiment: ACSS2 Cell-Free Activity Assay (Cell-Free IC50)
Conditions: 10 nM human ACSS2 protein, 90 minutes at 37 C, pyrophosphatase-coupled, Biomol Green absorbance at 620 nm; read-out: ACSS2 Biochemical IC50
Text: ACSS2 Cell-Free Activity Assay (Cell-Free IC50)

Sequence of human ACSS2 protein (Q9NR19 whole entry): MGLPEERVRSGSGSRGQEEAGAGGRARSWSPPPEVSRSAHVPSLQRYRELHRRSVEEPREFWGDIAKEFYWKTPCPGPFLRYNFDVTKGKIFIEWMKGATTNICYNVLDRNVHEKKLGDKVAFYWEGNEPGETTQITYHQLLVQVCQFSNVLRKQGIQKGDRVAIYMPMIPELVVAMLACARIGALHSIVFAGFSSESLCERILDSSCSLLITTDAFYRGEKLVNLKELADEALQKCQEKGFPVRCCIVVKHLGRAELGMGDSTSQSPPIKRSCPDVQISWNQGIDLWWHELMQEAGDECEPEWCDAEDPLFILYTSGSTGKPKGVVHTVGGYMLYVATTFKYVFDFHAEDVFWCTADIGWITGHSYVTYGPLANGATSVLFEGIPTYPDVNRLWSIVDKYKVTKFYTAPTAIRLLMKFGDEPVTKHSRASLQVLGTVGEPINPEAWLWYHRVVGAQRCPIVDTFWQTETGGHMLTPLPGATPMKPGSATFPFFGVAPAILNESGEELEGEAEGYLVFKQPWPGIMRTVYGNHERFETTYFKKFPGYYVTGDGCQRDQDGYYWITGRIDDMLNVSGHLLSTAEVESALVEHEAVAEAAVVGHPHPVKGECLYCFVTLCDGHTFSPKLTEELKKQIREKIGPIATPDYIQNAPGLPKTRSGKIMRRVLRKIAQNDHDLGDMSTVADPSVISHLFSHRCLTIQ

IC50	Molecule
> 0.1 µM	CCC1(C(=O)Nc2cccc(C(C)(F)F)c2)C(=O)N(c2ccc(OC(F)F)c(-c3ccccc3)c2)N=C1C (stereo not shown) [Compound 100, N-(3-(1,1-difluoroethyl)phenyl)-1-(6-(difluoromethoxy)-[1,1′-biphenyl]-3-yl)-4-ethyl-3-methyl-5-oxo-4,5-dihydro-1H-pyrazole-4-carboxamide]
0.001 to 0.1 µM	CC1=NN(c2ccc(OC(F)F)cc2)C(=O)C1C(=O)Nc1cccc(C(F)(F)C2CCC2)c1 (stereo not shown) [Compound 101, N-(3-(cyclobutyldifluoromethyl)phenyl)-1-(4-(difluoromethoxy)phenyl)-3-methyl-5-oxo-4,5-dihydro-1H-pyrazole-4-carboxamide]
> 0.1 µM	CCC(F)(F)c1cccc(NC(=O)c2cc(C)nc(-c3ccc(OC(F)F)cc3)c2)c1 [Compound 102, 2-[4-(difluoromethoxy)phenyl]-N-[3-(1,1-difluoropropyl)phenyl]-6-methyl-pyridine-4-carboxamide]
> 0.1 µM	CCC(F)(F)c1cccc(NC(=O)c2nc(C)c(-c3ccc(OC(F)F)c(-c4ccccc4)c3)nc2C)c1 [Compound 103, 5-(6-(difluoromethoxy)-[1,1′-biphenyl]-3-yl)-N-(3-(1,1-difluoropropyl)phenyl)-3,6-dimethylpyrazine-2-carboxamide]
> 0.1 µM	Cc1nc(-c2ccc(OC(F)F)c(-c3ccccc3)c2)c(C)nc1C(=O)Nc1cccc(C(C)(F)F)c1 [Compound 104, N-(3-(1,1-difluoroethyl)phenyl)-5-(6-(difluoromethoxy)-[1,1′-biphenyl]-3-yl)-3,6-dimethylpyrazine-2-carboxamide]
> 0.1 µM	CCC(F)(F)c1cccc(NC(=O)c2nc(C)c(-c3ccc(OC(F)F)cc3)nc2C)c1 [Compound 105, 5-(4-(difluoromethoxy)phenyl)-N-(3-(1,1-difluoropropyl)phenyl)-3,6-dimethylpyrazine-2-carboxamide]
> 0.1 µM	Cc1oc(-c2ccc3cc[nH]c3c2)nc1C(=O)Nc1cccc(C(C)(F)F)c1 [Compound 107, N-[3-(1,1-difluoroethyl)phenyl]-2-(1H-indol-6-yl)-5-methyl-oxazole-4-carboxamide]
> 0.1 µM	Cc1c(C(=O)Nc2cccc(C(C)(F)F)c2)c(=O)n(-c2ccc3cc[nH]c3c2)n1Cc1ccccc1 [Compound 108, 1-benzyl-N-[3-(1,1-difluoroethyl)phenyl]-2-(1H-indol-6-yl)-5-methyl-3-oxo-pyrazole-4-carboxamide]
0.001 to 0.1 µM	CC1=NN(c2ccc(C=C(c3ccccc3)c3ccccc3)c(-c3cccnc3)c2)C(=O)C1C(=O)Nc1cccc(C(C)(F)F)c1 (stereo not shown) [Compound 109]
0.001 to 0.1 µM	CC1=NN(c2ccc(C=C(c3ccccc3)c3ccccc3)c(Br)c2)C(=O)C1C(=O)Nc1cccc(C(C)(F)F)c1 (stereo not shown) [Compound 110]
> 0.1 µM	CCCC1(C(=O)Nc2cccc(C(C)(F)F)c2)C(=O)N(c2ccc(OC(F)F)c(-c3ccccc3)c2)N=C1C (stereo not shown) [Compound 111, N-(3-(1,1-difluoroethyl)phenyl)-1-(6-(difluoromethoxy)-[1,1′-biphenyl]-3-yl)-3-methyl-5-oxo-4-propyl-4,5-dihydro-1H-pyrazole-4-carboxamide]
0.001 to 0.1 µM	CCC(F)(F)c1cccc(NC(=O)c2nc(-c3ccc(OC(F)F)cc3)oc2C)c1 [Compound 112, 2-(4-(difluoromethoxy)phenyl)-N-(3-(1,1-difluoropropyl)phenyl)-5-methyloxazole-4-carboxamide]
> 0.1 µM	Cc1oc(-c2ccc(OC(F)F)cc2)nc1C(=O)Nc1cccc(C(C)(F)F)c1 [Compound 113, N-(3-(1,1-difluoroethyl)phenyl)-2-(4-(difluoromethoxy)phenyl)-5-methyloxazole-4-carboxamide]
> 0.1 µM	CCC(F)(F)c1cccc(NC(=O)c2nc(-c3ccc(OC)cc3)oc2C)c1 [Compound 116, N-(3-(1,1-difluoropropyl)phenyl)-2-(4-methoxyphenyl)-5-methyloxazole-4-carboxamide]
> 0.1 µM	CCC(F)(F)c1cccc(NC(=O)c2nc(-c3ccc(OC(F)F)c(-c4ccccc4)c3)cnc2C)c1 [Compound 117, 6-[4-(difluoromethoxy)-3-phenyl-phenyl]-N-[3-(1,1-difluoropropyl)phenyl]-3-methyl-pyrazine-2-carboxamide]
> 0.1 µM	Cc1ncc(-c2ccc(OC(F)F)c(-c3ccccc3)c2)nc1C(=O)Nc1cccc(C(C)(F)F)c1 [Compound 118, N-[3-(1,1-difluoroethyl)phenyl]-6-[4-(difluoromethoxy)-3-phenyl-phenyl]-3-methyl-pyrazine-2-carboxamide]
> 0.1 µM	CCC(F)(F)c1cccc(NC(=O)c2cnc(-c3ccc(OC(F)F)c(-c4ccccn4)c3)nc2C)c1 [Compound 119, 2-(4-(difluoromethoxy)-3-(pyridin-2-yl)phenyl)-N-(3-(1,1-difluoropropyl)phenyl)-4-methylpyrimidine-5-carboxamide]

IC50	Molecule
> 0.1 µM	Cc1nc(-c2ccc(OC(F)F)c(-c3ccccn3)c2)ncc1C(=O)Nc1cccc(C(C)(F)F)c1 [Compound 120, N-(3-(1,1-difluoroethyl)phenyl)-2-(4-(difluoromethoxy)-3-(pyridin-2-yl)phenyl)-4-methylpyrimidine-5-carboxamide]
0.001 to 0.1 µM	CCC(F)(F)c1cccc(NC(=O)C2C(=O)N(c3cc(Cc4ccccc4)c(OC)c(-c4ccccc4)c3)N=C2C)c1 (stereo not shown) [Compound 121, 1-(5-benzyl-6-methoxy-[1,1′-biphenyl]-3-yl)-N-(3-(1,1-difluoropropyl)phenyl)-3-methyl-5-oxo-4,5-dihydro-1H-pyrazole-4-carboxamide]
< 0.001 µM	COc1c(Cc2ccccc2)cc(N2N=C(C)C(C(=O)Nc3cccc(C(C)(F)F)c3)C2=O)cc1-c1ccccc1 (stereo not shown) [Compound 122, 1-(5-benzyl-6-methoxy-[1,1′-biphenyl]-3-yl)-N-(3-(1,1-difluoroethyl)phenyl)-3-methyl-5-oxo-4,5-dihydro-1H-pyrazole-4-carboxamide]
> 0.1 µM	CCC(F)(F)c1cccc(NC(=O)c2nc(-c3ccc(OC(F)F)c(-c4ccccc4)c3)oc2C)c1 [Compound 123, 2-[4-(difluoromethoxy)-3-phenyl-phenyl]-N-[3-(1,1-difluoropropyl)phenyl]-5-methyl-oxazole-4-carboxamide]
> 0.1 µM	Cc1oc(-c2ccc(OC(F)F)c(-c3ccccc3)c2)nc1C(=O)Nc1cccc(C(C)(F)F)c1 [Compound 124, N-[3-(1,1-difluoroethyl)phenyl]-2-[4-(difluoromethoxy)-3-phenyl-phenyl]-5-methyl-oxazole-4-carboxamide]
> 0.1 µM	CCC(F)(F)c1cccc(NC(=O)c2nc(-c3ccc(OC(F)F)cc3)cnc2C)c1 [Compound 125, 6-(4-(difluoromethoxy)phenyl)-N-(3-(1,1-difluoropropyl)phenyl)-3-methylpyrazine-2-carboxamide]
> 0.1 µM	Cc1ncc(-c2ccc(OC(F)F)cc2)nc1C(=O)Nc1cccc(C(C)(F)F)c1 [Compound 126, N-(3-(1,1-difluoroethyl)phenyl)-6-(4-(difluoromethoxy)phenyl)-3-methylpyrazine-2-carboxamide]
> 0.1 µM	CCC(F)(F)c1cccc(NC(=O)c2cc(C)nc(-c3ccc(OC(F)F)c(-c4ccccc4)c3)n2)c1 [Compound 127, 2-(6-(difluoromethoxy)-[1,1′-biphenyl]-3-yl)-N-(3-(1,1-difluoropropyl)phenyl)-6-methylpyrimidine-4-carboxamide]
0.001 to 0.1 µM	CCC(F)(F)c1cccc(NC(=O)C2C(=O)N(c3cc(CC4CCCCC4)c(OC)c(-c4ccccc4)c3)N=C2C)c1 (stereo not shown) [Compound 128, 1-(5-(cyclohexylmethyl)-6-methoxy-[1,1′-biphenyl]-3-yl)-N-(3-(1,1-difluoropropyl)phenyl)-3-methyl-5-oxo-4,5-dihydro-1H-pyrazole-4-carboxamide]
0.001 to 0.1 µM	COc1c(CC2CCCCC2)cc(N2N=C(C)C(C(=O)Nc3cccc(C(C)(F)F)c3)C2=O)cc1-c1ccccc1 (stereo not shown) [Compound 129, 1-(5-(cyclohexylmethyl)-6-methoxy-[1,1′-biphenyl]-3-yl)-N-(3-(1,1-difluoroethyl)phenyl)-3-methyl-5-oxo-4,5-dihydro-1H-pyrazole-4-carboxamide]
0.001 to 0.1 µM	Cc1cc(C(=O)Nc2cccc(C(C)(F)F)c2)nc(-c2ccc(OC(F)F)c(-c3ccccc3)c2)n1 [Compound 130, N-(3-(1,1-difluoroethyl)phenyl)-2-(6-(difluoromethoxy)-[1,1′-biphenyl]-3-yl)-6-methylpyrimidine-4-carboxamide]
> 0.1 µM	Cc1nc(-c2cc(-n3cc(C(=O)Nc4cccc(C(C)(F)F)c4)c(C)n3)ccc2OC(F)F)co1 [Compound 131, N-(3-(1,1-difluoroethyl)phenyl)-1-(4-(difluoromethoxy)-3-(2-methyloxazol-4-yl)phenyl)-3-methyl-1H-pyrazole-4-carboxamide]
> 0.1 µM	CCC(F)(F)c1cccc(NC(=O)c2ncc(-c3ccc(OC(F)F)cc3)nc2C)c1 [Compound 132, 5-(4-(difluoromethoxy)phenyl)-N-(3-(1,1-difluoropropyl)phenyl)-3-methylpyrazine-2-carboxamide]
> 0.1 µM	Cc1nc(-c2ccc(OC(F)F)cc2)cnc1C(=O)Nc1cccc(C(C)(F)F)c1 [Compound 133, N-(3-(1,1-difluoroethyl)phenyl)-5-(4-(difluoromethoxy)phenyl)-3-methylpyrazine-2-carboxamide]
> 0.1 µM	CCC(F)(F)c1cccc(NC(=O)c2ncc(-c3ccc(OC(F)F)c(-c4ccccc4)c3)nc2C)c1 [Compound 134, 5-[4-(difluoromethoxy)-3-phenyl-phenyl]-N-[3-(1,1-difluoropropyl)phenyl]-3-methyl-pyrazine-2-carboxamide]
0.001 to 0.1 µM	Cc1nc(-c2ccc(OC(F)F)c(-c3ccccc3)c2)cnc1C(=O)Nc1cccc(C(C)(F)F)c1 [Compound 135, N-[3-(1,1-difluoroethyl)phenyl]-5-[4-(difluoromethoxy)-3-phenyl-phenyl]-3-methyl-pyrazine-2-carboxamide]

Molecule	IC50
1-(4-(difluoromethoxy)phenyl)-3-methyl-4-(1-((4-(methylsulfonyl)phenyl)amino)-1H-1,2,3-triazol-4-yl)-1H-pyrazol-5(4H)-one [Compound 195]	> 0.1 µM
